Where two headings read alike, the source gives them in different places.
Assays:
[1] = Protocol: (§1) In another clinical test five volunteers were chose, all male and smokers, characterized by a strong formation of dental calculus (tartar), especially IN the zone of the lingual face of the lower incisors. Each volunteer underwent an application of 500 mg of pure glutathione in powder on the lingual face of the lower incisors by means of a single-tuft toothbrush with medium bristles, followed by a tooth brushing for ten minutes with the same toothbrush. After a rinse with water the operation was repeated, always for ten minutes using a further 500 mg of glutathione.
[2] = aqueous solution of 2%, 30° C, without light, tooth rinsed and lightly brushed and solution changed every two days
Protocol: The in vitro evaluation of anti-tartar activity was carried out on an extracted tooth. The amount of tartar on said tooth was quantified before the test. The tooth was then immersed. Into an aqueous solution of 2% glutathlone and kept in a closed vessel without light at 30° C. Every two days said tooth was rinsed and lightly brushed and the solution was changed.

[3] = remark: listed apart in the source
Protocol: as §1, with “in” for “IN”, “200” for “500”, “followed-by” for “followed by”

In the case of `N[C@@H](CCC(=O)N[C@@H](CS)C(=O)NCC(=O)O)C(=O)O` [glutathione], the “removal of dental calculus (tartar)” value ([1]; all five volunteers, zones where brushing had been carried out, 2 x 500 mg powder, 2 x ten minutes brushing) is reported as “complete removal”, the “residual dental calculus (tartar)” value ([1]; sub-gingival and interstitial zones where brushing had not been properly carried out, 2 x 500 mg) is reported as “presence of residual dental calculus (tartar)” and the “time until removal of tartar was completed” value [2] is reported as “two to three weeks”. The “time until removal of tartar was evident” value [2] was “after only four days”, the “reduction of dental calculus (tartar)” value ([3]; all five volunteers, zones where brushing had been carried out, 2 x 200 mg powder, 2 x ten minutes brushing) was “consistent reduction” and the “residual dental calculus (tartar)” value ([3]; sub-gingival and interstitial zones where brushing had not been properly carried out, 2 x 200 mg) was “presence of residual dental calculus (tartar)”.

Source: patent US20040028623A1, “Formulations for the removal of dental plaque, tartar and dental stains” (priority 2000, published 2004)
